ChEMBL document CHEMBL1131403, “Selective inhibition of the chymotrypsin-like activity of the 20S proteasome by 5-methoxy-1-indanone dipeptide benzamides” (Bioorg Med Chem Lett, 1998)
Where a SMILES comes first, the peptide text is derived from it. [ ]: non-standard residue; d: D form. Nle = CCCC[C@H](N)C(=O)O

Assays:
Proteasome [1] = test: Inhibition of chymotrypsin-like activity of 20S proteasome; format: subcellular
Calpain 1 [2] = target: T1, Calpain 1 (Homo sapiens, UniProt P04632+P07384); test: Inhibitory activity against calpain I; no inhibition was observed; format: protein-complex assay
T1 sequence (P04632 whole entry): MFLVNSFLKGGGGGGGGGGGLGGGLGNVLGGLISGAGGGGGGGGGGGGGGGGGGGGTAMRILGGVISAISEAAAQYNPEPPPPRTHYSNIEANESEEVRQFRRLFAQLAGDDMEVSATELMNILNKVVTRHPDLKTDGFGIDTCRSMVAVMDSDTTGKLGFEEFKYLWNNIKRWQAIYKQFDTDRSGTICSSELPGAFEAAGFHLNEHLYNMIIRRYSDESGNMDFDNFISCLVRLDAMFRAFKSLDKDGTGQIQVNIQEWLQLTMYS
T1 sequence (P07384 whole entry): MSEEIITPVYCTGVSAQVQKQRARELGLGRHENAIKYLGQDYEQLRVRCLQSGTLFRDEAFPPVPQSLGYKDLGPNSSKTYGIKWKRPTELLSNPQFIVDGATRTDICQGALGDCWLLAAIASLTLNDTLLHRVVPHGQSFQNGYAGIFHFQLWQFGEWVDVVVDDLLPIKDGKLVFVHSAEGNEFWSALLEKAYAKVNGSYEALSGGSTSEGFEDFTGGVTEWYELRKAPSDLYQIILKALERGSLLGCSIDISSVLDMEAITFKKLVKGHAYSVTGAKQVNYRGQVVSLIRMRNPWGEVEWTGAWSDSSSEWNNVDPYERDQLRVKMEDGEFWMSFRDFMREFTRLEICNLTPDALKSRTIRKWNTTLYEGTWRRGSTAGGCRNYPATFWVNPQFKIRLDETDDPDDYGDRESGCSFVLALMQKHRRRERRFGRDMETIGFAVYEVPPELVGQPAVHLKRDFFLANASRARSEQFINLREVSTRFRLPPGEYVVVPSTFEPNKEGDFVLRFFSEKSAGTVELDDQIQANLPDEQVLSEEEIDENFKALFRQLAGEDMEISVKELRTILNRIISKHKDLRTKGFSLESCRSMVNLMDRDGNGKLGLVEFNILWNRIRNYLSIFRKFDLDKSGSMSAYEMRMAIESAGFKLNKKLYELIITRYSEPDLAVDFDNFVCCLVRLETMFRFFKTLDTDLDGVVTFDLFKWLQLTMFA

RAW = test: Antiproliferative activity against murine macrophage (RAW) cell line; format: functional, cell-based; settings: Mus musculus
Calpain 1 [3] = target: Calpain 1 (Homo sapiens, UniProt P07384); test: Inhibitory activity against Calpain I; format: protein-complex assay
Proteasome [4] = test: Inhibition of chymotrypsin-like activity of 20S proteasome; value ranges from 10-20 uM; format: subcellular

SMILES	IC50 (Proteasome [1])	IC50 (Calpain 1 [2])	IC50 (RAW)	IC50 (Calpain 1 [3])	IC50 (Proteasome [4])
COc1ccc2c(c1)C(CC(=O)N[C@@H](CC(C)C)C(=O)N[C@H](CC(C)C)C(=O)N1CCCCC1)CC2=O (some centres undefined)	> 20 µM	No inhibition	–	–	–
COc1ccc2c(c1)C(CC(=O)N[C@@H](CC(C)C)C(=O)N[C@H](CC(C)C)C(=O)N1CCOCC1)CC2=O (some centres undefined)	> 20 µM	No inhibition	–	–	–
COc1ccc2c(c1)C(CC(=O)N[C@H](Cc1ccccc1)C(=O)N[C@H](CC(C)C)C(N)=O)CC2=O (some centres undefined)	> 20 µM	No inhibition	–	–	–
COc1ccc2c(c1)C(CC(=O)N[C@@H](CC(C)C)C(=O)N[C@H](CC(C)C)C(=O)N1CCCC1)CC2=O (some centres undefined)	> 20 µM	No inhibition	–	–	–
COc1ccc2c(c1)C(CC(=O)N[C@@H](CC(C)C)C(=O)N[C@H](CC(C)C)C(=O)NCc1ccc3c(c1)OCO3)CC2=O (some centres undefined)	0.34 µM	No inhibition	–	–	–
COc1ccc2c(c1)C(CC(=O)N[C@@H](CC(C)C)C(=O)N[C@H](CC(C)C)C(=O)NCc1c(F)cccc1F)CC2=O (some centres undefined)	0.14 µM	No inhibition	8 µM	–	–
COc1ccc(CNC(=O)[C@@H](CC(C)C)NC(=O)[C@H](CC(C)C)NC(=O)CC2CC(=O)c3ccc(OC)cc32)cc1 (some centres undefined)	0.71 µM	No inhibition	–	–	–
COc1ccc2c(c1)C(CC(=O)N[C@@H](CC(C)C)C(=O)N[C@H](CC(C)C)C(=O)NCc1ccco1)CC2=O (some centres undefined)	1.9 µM	No inhibition	–	–	–
COc1ccc2c(c1)C(CC(=O)N[C@H](CC(C)C)C(=O)N[C@H](CC(C)C)C(=O)NCC(N)=O)CC2=O (some centres undefined)	> 20 µM	No inhibition	–	–	–
COc1ccc2c(c1)C(CC(=O)N[C@@H](CC(C)C)C(=O)N[C@H](CC(C)C)C(=O)NCc1ccc([N+](=O)[O-])cc1)CC2=O (some centres undefined)	> 17 µM	No inhibition	–	–	–
COc1ccc2c(c1)C(CC(=O)N[C@@H](CC(C)C)C(=O)N[C@H](CC(C)C)C(=O)NC1CCc3ccccc31)CC2=O (some centres undefined)	0.89 µM	No inhibition	–	–	–
COc1ccc2c(c1)C(CC(=O)N[C@@H](CC(C)C)C(=O)N[C@H](CC(C)C)C(N)=O)CC2=O (some centres undefined)	> 20 µM	No inhibition	–	–	–
COc1ccc2c(c1)C(CC(=O)N[C@@H](CC(C)C)C(=O)N[C@H](CC(C)C)C(=O)NCCO)CC2=O (some centres undefined)	> 20 µM	No inhibition	–	–	–
COc1ccc2c(c1)C(CC(=O)N[C@@H](CC(C)C)C(=O)N[C@H](CC(C)C)C(=O)NCc1occ3ccccc13)CC2=O (some centres undefined)	8.7 µM	No inhibition	–	–	–
COc1ccc2c(c1)C(CC(=O)N[C@@H](CC(C)C)C(=O)N[C@H](CC(C)C)C(=O)NCc1ccc(-c3ccccc3)cc1)CC2=O (some centres undefined)	0.49 µM	No inhibition	–	–	–
COc1ccc2c(c1)C(CC(=O)N[C@@H](CC(C)C)C(=O)N[C@H](CC(C)C)C(=O)NC(C)C)CC2=O (some centres undefined)	> 20 µM	No inhibition	–	–	–
COc1ccc2c(c1)C(CC(=O)N[C@@H](CC(C)C)C(=O)N[C@H](CC(C)C)C(=O)NCc1ccccc1-c1ccccc1)CC2=O (some centres undefined)	> 16 µM	No inhibition	–	–	–
COc1ccc2c(c1)C(CC(=O)N[C@H](CC(C)C)C(=O)N[C@@H](C(N)=O)C(C)C)CC2=O (some centres undefined)	> 20 µM	No inhibition	–	–	–

SMILES	IC50 (Proteasome [1])	IC50 (Calpain 1 [2])	IC50 (RAW)	IC50 (Calpain 1 [3])	IC50 (Proteasome [4])
COc1ccc2c(c1)C(CC(=O)N[C@@H](CC(C)C)C(=O)N[C@H](CC(C)C)C(=O)NC(c1ccccc1)c1ccccc1)CC2=O (some centres undefined)	> 16 µM	No inhibition	–	–	–
COc1ccc2c(c1)C(CC(=O)N[C@@H](CC(C)C)C(=O)N[C@H](CC(C)C)C(=O)NCc1ccc(OCc3ccccc3)cc1)CC2=O (some centres undefined)	16 µM	No inhibition	–	–	–
CCCC[C@@H](C=O)NC(=O)[C@H](CC(C)C)NC(=O)[C@H](CC(C)C)NC(C)=O (Ac-Leu-Leu-[Nle]-aldehyde)	0.15 µM	–	–	7 µM	–
COc1ccc2c(c1)C(CC(=O)N[C@@H](CC(C)C)C(=O)N[C@H](CC(C)C)C(=O)NCC1CCCCC1)CC2=O (some centres undefined)	> 18 µM	No inhibition	–	–	–
COc1ccc2c(c1)C(CC(=O)N[C@@H](CC(C)C)C(=O)N[C@H](CC(C)C)C(=O)NCc1ccccc1)CC2=O (some centres undefined)	0.93 µM	No inhibition	7 µM	–	–
COc1ccc2c(c1)C(CC(=O)N[C@H](CC(C)C)C(=O)N[C@@H](CC(C)C)C(=O)NCC(N)=O)CC2=O (some centres undefined)	–	No inhibition	–	–	10 µM
CCC[C@H](NC(=O)CC1CC(=O)c2ccc(OC)cc21)C(=O)N[C@H](CC(C)C)C(=O)NCC(N)=O (some centres undefined)	> 20 µM	No inhibition	–	–	–
COc1ccc2c(c1)C(CC(=O)N[C@@H](CC(C)C)C(=O)N[C@@H](CC(C)C)C(=O)NCC(N)=O)CC2=O (some centres undefined)	> 20 µM	No inhibition	–	–	–
COc1ccc2c(c1)C(CC(=O)N[C@@H](CC(C)C)C(=O)N[C@@H](CC(C)C)C(N)=O)CC2=O (some centres undefined)	> 20 µM	No inhibition	–	–	–
COc1ccc2c(c1)C(CC(=O)N[C@H](CC(C)C)C(=O)N[C@@H](CC(C)C)C(N)=O)CC2=O (some centres undefined)	> 20 µM	No inhibition	–	–	–
COc1ccc2c(c1)C(CC(=O)N[C@@H](CC(C)C)C(=O)N[C@H](CC(C)C)C(=O)NC1C3CC4CC(C3)CC1C4)CC2=O (some centres undefined)	> 18 µM	No inhibition	–	–	–
COc1ccc2c(c1)C(CC(=O)N[C@@H](CC(C)C)C(=O)N[C@H](CC(C)C)C(=O)NCc1c(F)c(F)c(F)c(F)c1F)CC2=O (some centres undefined)	> 16 µM	No inhibition	–	–	–
COc1ccc2c(c1)C(CC(=O)N[C@@H](CC(C)C)C(=O)N[C@H](CC(C)C)C(=O)NCC(N)=O)CC2=O (some centres undefined)	0.2 µM	No inhibition	–	–	–
COc1ccc2c(c1)C(CC(=O)N[C@@H](CC(C)C)C(=O)N[C@H](CC(C)C)C(=O)Nc1ccccc1)CC2=O (some centres undefined)	> 19 µM	No inhibition	–	–	–
COc1ccc2c(c1)C(CC(=O)N[C@@H](CC(C)C)C(=O)N[C@H](CC(C)C)C(=O)NCCc1ccccc1)CC2=O (some centres undefined)	> 18 µM	No inhibition	–	–	–
COc1ccc2c(c1)C(CC(=O)N[C@@H](CC(C)C)C(=O)N[C@H](CC(C)C)C(=O)N(C)Cc1ccccc1)CC2=O (some centres undefined)	> 18 µM	No inhibition	–	–	–
COc1ccc2c(c1)C(CC(=O)N[C@H](CC(C)C)C(=O)N[C@H](CC(C)C)C(N)=O)CC2=O (some centres undefined)	2.2 µM	No inhibition	–	–	–
COc1ccc2c(c1)C(CC(=O)N[C@@H](C(=O)N[C@H](CC(C)C)C(N)=O)C(C)C)CC2=O (some centres undefined)	> 20 µM	No inhibition	–	–	–
